According to patent US20240174696A1, “2,8-DIAZASPIRO[4.5]DECANE COMPOUNDS” (Genentech, Inc., priority 2021, published 2024):

Legend:
[1] = system: pYAP(Ser127) in SW1990 cells; assay: pYAP(Ser127) HTRF Cellular Assay; type: cell-based; conditions: Homo sapiens, 4 hours
Procedure: The SW1990 cells were seeded at 8000 cells/well by adding 30 μL/well of cells in RPMI1640, 10% FBS, 2 mM glutamine culture media to a 384-well plate (Corning 3570). The cells were incubated overnight at 37° C. Next day, compounds were directly added to the cells using the Echo Liquid Handler (Labcyte), incubate at 37° C. for 4 hours.
The HTRF assay was performed using the Cisbio phospho-YAP Ser127 HTRF kit (64YAPPEG). The media was aspirated from the cells. 20 μL of 1X lysis/blocking buffer was added to the cells, gently shake for 30 minutes at room temperature. 1 μL of the premixed antibody solution (1:40 dilution of each phospho-YAP Eu Cryptate antibody and phospho-YAP d2 antibody) was added to the cells. The plate was sealed and incubated overnight at room temperature. The HTRF (665 nm/620 nm) signal was read on the PHERAstar reader (BMG Labtech). The EC50 values were calculated by fitting the % inhibition with a nonlinear four-parameter logistical equation.

[2] = target: Human LATS1 catalytic domain (Homo sapiens (Human), UniProt O95835); assay: LATS1 High ATP HTRF Assay; type: biochemical; conditions: 5000 μM ATP, 0.025 nM LATS1; Cheng-Prusoff
Procedure: Human LATS1 catalytic domain which contains the amino acids E590-V1130 (accession NP_004681) was purified in-house. The LATS1 catalytic domain was co-purified with Mob1b (accession NP_775739). The LATS1 biochemical assay was performed using the HTRF KinEASE-STK S1 Kit (Cisbio, Cat #62ST1PEC), following the protocol from the manufacturer. Compounds were dispensed by the Echo Liquid Handler (Labcyte) into a white 384-well plate (PerkinElmer, Cat #6008289). 3 μL of 2×LATS1 enzyme solution was added to the compounds, followed by a 10 minute incubation at room temperature. Then, 3 μL of 2×ATP and STK S1 peptide solution was added to initiate the enzyme reaction for one hour at room temperature. The final condition of the reaction was 0.025 nM LATS1, 5000 μM ATP, 0.5 μM STK S1 peptide in 50 mM HEPES pH 7.2, 10 mM MgCl2, 0.1% BGG, 0.005% Brij-35, 1 mM DTT. The reaction was quenched and the HTRF signal was read.

[3] = target: T1, Human LATS2 catalytic domain (Homo sapiens (Human), UniProt Q9NRM7); assay: LATS2 High ATP HTRF Assay; type: biochemical; conditions: no asterisk: LATS2 High ATP HTRF Assay, 5000 μM ATP, 0.05 nM LATS2
In short: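 LATS2 catalytic domain (G553-V1088) co-purified with Mob1b, 0.05 nM, pre-incubated 10 min with compound, then 5000 μM ATP and 0.5 μM STK S1 peptide in HEPES pH7.2 for 2 h at room temperature. HTRF 665/620 nm read; IC50 by four-parameter fit, Ki via Cheng-Prusoff with ATP Km 105 μM.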

[4] = system: TAZ nuclear translocation in SW1990 cells; assay: TAZ Nuclear Translocation Assay; type: cell-based; conditions: Homo sapiens, 4 hours
In short: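 SW1990 cells in RPMI1640/10% FBS treated with compounds for 4 h at 37 °C, then fixed and immunostained for TAZ with Hoechst nuclear counterstain and imaged by high-content imaging. Read-out is the nuclear/cytoplasmic-ring fluorescence ratio, normalized to DMSO (0%) and an inhibitor control (100%); EC50 from four-parameter fit.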

[5] = target: T1, Human LATS2 catalytic domain; assay: Standard LATS2 HTRF Assay; type: biochemical; conditions: asterisk: Standard LATS2 HTRF Assay, 50 μM ATP, 0.2 nM LATS2
Procedure: Human LATS2 catalytic domain which contains the amino acids G553-V1088 (accession NP_055387) was purified in-house. The LATS2 catalytic domain was co-purified with Mob1b (accession NP_775739). The LATS2 biochemical HTRF assay was performed using the HTRF KinEASE-STK S1 Kit (Cisbio, Cat #62ST1PEC), following the protocol from the manufacturer. Compounds were dispensed by the Echo Liquid Handler (Labcyte) into a white 384-well plate (PerkinElmer, Cat #6008289). 3 uL of 2×LATS2 enzyme solution was added to the compounds, following by a 10 minute incubation at room temperature. Then, 2×ATP and STK S1 peptide solution was added to initiate the one hour enzyme reaction at room temperature. The final condition of the reaction was 0.2 nM LATS2, 50 μM ATP, 0.5 μM STK S1 peptide in 50 mM HEPES pH7.2, 10 mM MgCl2, 0.1% BGG, 0.005% Brij-35, 1 mM DTT. The reaction was quenched by adding 6 uL of the detection mixture which contained Streptavidin XL665 and STK Antibody-Cryptate (Cisbio), incubate for 1 hour at room temperature. The HTRF (665 nm/620 nm) signal was read on the Envision plater reader (PerkinElmer). The IC50 values were determined by fitting the % inhibition with a nonlinear four-parameter logistical equation. The Ki values were calculated using the Cheng-Prusoff equation for a competitive inhibitor, IC50═Ki (1+S/Km)+M [E] with ATP Km for LATS2=105 μM.

Sequence of Human LATS1 catalytic domain (O95835 590-1130): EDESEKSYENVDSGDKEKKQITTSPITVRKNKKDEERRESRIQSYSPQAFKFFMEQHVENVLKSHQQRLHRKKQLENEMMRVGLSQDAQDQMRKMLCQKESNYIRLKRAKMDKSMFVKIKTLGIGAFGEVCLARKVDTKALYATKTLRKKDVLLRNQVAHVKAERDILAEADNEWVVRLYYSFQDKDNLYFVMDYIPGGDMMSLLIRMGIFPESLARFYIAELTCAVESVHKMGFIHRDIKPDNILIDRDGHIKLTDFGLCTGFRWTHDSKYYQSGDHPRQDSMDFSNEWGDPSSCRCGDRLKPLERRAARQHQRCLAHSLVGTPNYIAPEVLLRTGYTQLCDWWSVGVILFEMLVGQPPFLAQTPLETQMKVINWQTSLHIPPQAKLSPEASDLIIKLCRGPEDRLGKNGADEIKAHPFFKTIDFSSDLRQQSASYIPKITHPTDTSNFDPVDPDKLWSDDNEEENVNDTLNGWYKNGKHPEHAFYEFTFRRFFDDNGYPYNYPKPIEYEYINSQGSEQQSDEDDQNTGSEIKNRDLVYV
Sequence of Human LATS1 catalytic domain (Q7L9L4 whole entry partner, the tested form may be a part): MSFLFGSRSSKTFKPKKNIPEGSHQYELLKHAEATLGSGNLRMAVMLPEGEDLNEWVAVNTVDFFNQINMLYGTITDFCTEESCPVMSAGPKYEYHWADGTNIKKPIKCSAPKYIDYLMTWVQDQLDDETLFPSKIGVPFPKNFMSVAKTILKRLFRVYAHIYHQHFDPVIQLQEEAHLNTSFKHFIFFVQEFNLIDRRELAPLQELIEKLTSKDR
T1 sequence (Q9NRM7 553-1088): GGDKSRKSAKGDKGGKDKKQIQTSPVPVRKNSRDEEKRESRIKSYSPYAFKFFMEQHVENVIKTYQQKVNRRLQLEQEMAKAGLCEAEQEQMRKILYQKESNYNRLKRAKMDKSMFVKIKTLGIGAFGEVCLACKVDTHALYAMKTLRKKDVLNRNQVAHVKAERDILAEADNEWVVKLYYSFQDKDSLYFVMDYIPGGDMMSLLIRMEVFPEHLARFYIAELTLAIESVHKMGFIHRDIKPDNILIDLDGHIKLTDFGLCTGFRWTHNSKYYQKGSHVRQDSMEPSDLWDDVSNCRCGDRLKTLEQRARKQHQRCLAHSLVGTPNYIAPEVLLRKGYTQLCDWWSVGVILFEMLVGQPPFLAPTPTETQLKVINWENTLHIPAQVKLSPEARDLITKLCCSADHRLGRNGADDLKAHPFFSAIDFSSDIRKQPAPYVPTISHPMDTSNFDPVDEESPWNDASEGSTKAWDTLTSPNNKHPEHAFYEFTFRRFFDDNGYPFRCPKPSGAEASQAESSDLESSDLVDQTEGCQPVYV
T1 sequence (Q7L9L4 whole entry partner, the tested form may be a part): as the sequence (Q7L9L4 whole entry partner, the tested form may be a part) above

| SMILES | EC50 [1] [nM] | Ki [2] [nM] | Ki [3] [nM] | EC50 [4] [nM] | Ki [5] [nM] |
| --- | --- | --- | --- | --- | --- |
| c1cc(-c2nc(N3CCC4(CCNC4)CC3)c3ccncc3n2)ccn1 [Compound 101, 2-(pyridin-4-yl)-4-(2,8-diazaspiro[4.5]decan-8-yl)pyrido[3,4-d]pyrimidine] | 1100 | 0.051 | 0.38 | 990 | – |
| CN1CCC2(CCN(c3nc(-c4ccncc4)nc4cnccc34)CC2)C1 [Compound 102, 4-(2-methyl-2,8-diazaspiro[4.5]decan-8-yl)-2-(pyridin-4-yl)pyrido[3,4-d]pyrimidine] | 430 | 0.011 | 0.98 | 350 | – |
| OCCN1CCC2(CCN(c3nc(-c4ccncc4)nc4cnccc34)CC2)C1 [Compound 114, 2-(8-(2-(pyridin-4-yl)pyrido[3,4-d]pyrimidin-4-yl)-2,8-diazaspiro[4.5]decan-2-yl)ethanol] | 550 | – | 0.31 | 610 | – |
| N#CC1CC(N2CCC3(CCN(c4nc(-c5ccncc5)nc5cnccc45)CC3)C2)C1 (centres unmarked) [Compound 118, 3-(8-(2-(pyridin-4-yl)pyrido[3,4-d]pyrimidin-4-yl)-2,8-diazaspiro[4.5]decan-2-yl)cyclobutanecarbonitrile] | – | – | – | > 10000 | 1.02 |
| OCCCN1CCC2(CCN(c3nc(-c4ccncc4)nc4cnccc34)CC2)C1 [Compound 120, 3-(8-(2-(pyridin-4-yl)pyrido[3,4-d]pyrimidin-4-yl)-2,8-diazaspiro[4.5]decan-2-yl)propan-1-ol] | 360 | – | 0.17 | 370 | – |
| c1cc(-c2nc(N3CCC4(CC3)CCN(C3CCOCC3)C4)c3ccncc3n2)ccn1 [Compound 122, 2-(pyridin-4-yl)-4-(2-(tetrahydro-2H-pyran-4-yl)-2,8-diazaspiro[4.5]decan-8-yl)pyrido[3,4-d]pyrimidine] | – | – | – | 990 | 1.02 |
| FC(F)CN1CCC2(CCN(c3nc(-c4ccncc4)nc4cnccc34)CC2)C1 [Compound 127, 4-(2-(2,2-difluoroethyl)-2,8-diazaspiro[4.5]decan-8-yl)-2-(pyridin-4-yl)pyrido[3,4-d]pyrimidine] | 3400 | – | 0.55 | 1300 | – |
| c1ccc(CN2CCC3(CCN(c4nc(-c5ccncc5)nc5cnccc45)CC3)C2)cc1 [Compound 133, 4-(2-benzyl-2,8-diazaspiro[4.5]decan-8-yl)-2-(pyridin-4-yl)pyrido[3,4-d]pyrimidine] | 250 | – | 0.069 | 400 | – |
| CCN1CCC2(CCN(c3nc(-c4ccncc4)nc4cnccc34)CC2)C1 [Compound 138, 4-(2-ethyl-2,8-diazaspiro[4.5]decan-8-yl)-2-(pyridin-4-yl)pyrido[3,4-d]pyrimidine] | 890 | – | 0.61 | 590 | – |
| Cc1n[nH]cc1-c1nc(N2CCC3(CCN(C)C3)CC2)c2ccncc2n1 [Compound 143, 2-(3-methyl-1H-pyrazol-4-yl)-4-(2-methyl-2,8-diazaspiro[4.5]decan-8-yl)pyrido[3,4-d]pyrimidine] | 1000 | – | 0.15 | 700 | – |
| CCN1CCC2(CCN(c3nc(-c4cn[nH]c4C)nc4cnccc34)CC2)C1 [Compound 151, 4-(2-ethyl-2,8-diazaspiro[4.5]decan-8-yl)-2-(5-methyl-1H-pyrazol-4-yl)pyrido[3,4-d]pyrimidine] | 390 | – | 0.09 | 470 | – |
| CC1CC2(CCN(c3nc(-c4ccncc4)nc4cnccc34)CC2)CN1 (centres unmarked) [Compound 167, 4-(3-methyl-2,8-diazaspiro[4.5]decan-8-yl)-2-(pyridin-4-yl)pyrido[3,4-d]pyrimidine] | 300 | – | 0.58 | 540 | – |

The next compounds have a lower EC50 [4] than those just listed; values first:

| EC50 [1] [nM] | Ki [2] [nM] | Ki [3] [nM] | EC50 [4] [nM] | Ki [5] [nM] | SMILES |
| --- | --- | --- | --- | --- | --- |
| 310 | 0.0063 | 0.13 | 300 | – | C[C@H](O)CN1CCC2(CCN(c3nc(-c4ccncc4)nc4cnccc34)CC2)C1 (single isomer, unassigned) [Compound 115] |
| 320 | 0.0079 | 0.13 | 310 | – | C[C@@H](O)CN1CCC2(CCN(c3nc(-c4ccncc4)nc4cnccc34)CC2)C1 (single isomer, unassigned) [Compound 116] |
| 360 | 0.0058 | 0.073 | 300 | – | O[C@@H]1CCC[C@H]1N1CCC2(CCN(c3nc(-c4ccncc4)nc4cnccc34)CC2)C1 (single isomer, unassigned) [Compound 128] |
| 290 | 0.0074 | 0.076 | 140 | – | O[C@H]1CCC[C@@H]1N1CCC2(CCN(c3nc(-c4ccncc4)nc4cnccc34)CC2)C1 (single isomer, unassigned) [Compound 129] |
| 330 | 0.0079 | 0.075 | 220 | – | CC(C)(O)CN1CCC2(CCN(c3nc(-c4ccncc4)nc4cnccc34)CC2)C1 [Compound 110, 2-methyl-1-(8-(2-(pyridin-4-yl)pyrido[3,4-d]pyrimidin-4-yl)-2,8-diazaspiro[4.5]decan-2-yl)propan-2-ol] |
| 630 | – | 0.8 | 300 | – | COCCN1CCC2(CCN(c3nc(-c4ccncc4)nc4cnccc34)CC2)C1 [Compound 121, 4-(2-(2-methoxyethyl)-2,8-diazaspiro[4.5]decan-8-yl)-2-(pyridin-4-yl)pyrido[3,4-d]pyrimidine] |
| 260 | 0.0068 | 0.083 | 240 | – | c1cc(-c2nc(N3CCC4(CCN(CC5COC5)C4)CC3)c3ccncc3n2)ccn1 [Compound 124, 4-(2-(oxetan-3-ylmethyl)-2,8-diazaspiro[4.5]decan-8-yl)-2-(pyridin-4-yl)pyrido[3,4-d]pyrimidine] |
| 490 | – | 0.29 | 280 | – | c1cc(-c2nc(N3CCC4(CC3)CCN(C3CCC3)C4)c3ccncc3n2)ccn1 [Compound 131, 4-(2-cyclobutyl-2,8-diazaspiro[4.5]decan-8-yl)-2-(pyridin-4-yl)pyrido[3,4-d]pyrimidine] |
| 210 | 0.013 | 0.056 | 180 | – | Cc1n[nH]cc1-c1nc(N2CCC3(CC2)CCN(C2CCCC2)C3)c2ccncc2n1 [Compound 147, 4-(2-cyclopentyl-2,8-diazaspiro[4.5]decan-8-yl)-2-(3-methyl-1H-pyrazol-4-yl)pyrido[3,4-d]pyrimidine] |
| 510 | 0.049 | 0.067 | 240 | – | c1ccc(Cc2cc3c(N4CCC5(CCNC5)CC4)nc(-c4ccncc4)nc3cn2)cc1 [Compound 157, 6-benzyl-2-(pyridin-4-yl)-4-(2,8-diazaspiro[4.5]decan-8-yl)pyrido[3,4-d]pyrimidine] |
